Series [1] relates to in vitro reconstituted human 3D skin with a corneum layer. The settings on record: 1% SLS, 10% Glycolic acid, cited from earlier work.
The test system is the same in series [2]. In words: Keratolytic effect, MTT assay on reconstituted human 3D skin. The class given is cell-based. The method, then:
The assay was carried out on a three-dimensional reconstituted human skin model, composed of human epidermal keratinocytes that have been proliferating and differentiating in vitro in peculiar conditions in order to build up a well-differentiated stratum corneum. […] When the damage of the corneum layer is stronger, as it happens with keratolytic agents, the cytotoxic effects of the germinative layer are faster to develop. […] Thirty μL of each substance have been applied to the cell culture and incubation at 37° C. was performed for 15 and 120 minutes respectively.

The test system of series [3] is peripheral blood mononuclear cells (PBMC). In words: In vitro inhibition of PBMC proliferation. The class given is cell-based.

Molecules are shown by their SMILES. Where two headings read alike, the source gives them in different places.

What is called inhibition is the percentage by which the read-out fell short of the control. Read a high inhibition as a strong effect.

In the case of `O=C(O)CO` [glycolic acid], the results for the “cell death, as generally stated for the reference agents” value in series [1] (after 15') and in series [1] (after 2 h) were 50% and 90%, respectively. In addition, in series [2] (at 15', 10% glycolic acid), the cell death is on record as 45.86%.
In the case of `CCCCCCCCCCCCOS(=O)(=O)[O-].[Na+]` [SLS], the “cell death, as generally stated for the reference agents” value is “does not cause any cell death” in series [1] (after 15') and “about 30%” in series [1] (after 2 h). The “cell death (cytotoxic effect)” value in series [2] (after 2 hours, 1% SLS) stood at 27.69%.
Consider `C[C@H]1C[C@H]2[C@@H]3CCC4=CC(=O)C=C[C@]4(C)[C@@]3(F)[C@@H](O)C[C@]2(C)[C@@]1(O)C(=O)CO` [Betamethasone, betamethasone], for which the inhibition at 0.01 µM amounted to 87.7% in series [3] (Batch 1, 10 nM); 85.7% in series [3] (Batch 2, 10 nM); 79.4% in series [3] (Batch 3, 10 nM); 88.5% in series [3] (Batch 4, 10 nM); 85.3% in series [3] (Mean, 10 nM).
